The structures appear in SMILES notation. Where a name gives a salt, the structure may show the parent alone. Read-outs that look alike come from different tables or passages of the source.

In experiment [1] the target is T1, SARS-CoV-2 PLpro (nsp3 1564–1878) (Severe acute respiratory syndrome coronavirus 2, UniProt P0DTD1). Kind of experiment: biochemical. Also noted: FRET-quenched peptide (Pro3) cleavage by PLpro, 10 min pre-incubation, slope over 20 min, normalised to no-compound control. Particulars: high concentration screen, read-out: % of control remaining.
The target of experiment [2] is T1, SARS-CoV-2 PLpro (nsp3 1564–1878). Kind of experiment: biochemical. Also noted: FRET-quenched peptide (Pro3) cleavage by PLpro, 10 min pre-incubation, slope over 20 min, normalised to no-compound control. Particulars: low concentration screen, read-out: % of control remaining.

Take `CC(C)C(=O)Nc1ccc([N+](=O)[O-])c(C(F)(F)F)c1` [Flutamide]: the remaining activity at 3.75 µM is 97.8% in experiment [1] (Well no.=759) and 95% in experiment [1] (Well no.=2130). In addition, the values for the remaining activity at 1.25 µM in experiment [2] (Well no.=759) and in experiment [2] (Well no.=2130) were 90.8% and 93%, respectively.
For the compound `CCC(=O)O[C@]1(C(=O)SCF)[C@H](C)C[C@H]2[C@@H]3C[C@H](F)C4=CC(=O)C=C[C@]4(C)[C@@]3(F)[C@@H](O)C[C@@]21C` [Fluticasone (propionate)], the remaining activity at 3.75 µM in experiment [1] (Well no.=7515) was determined as 97.6%. The remaining activity at 1.25 µM in experiment [2] (Well no.=7515) turned out to be 98.2%.
With `CC(C)n1c(/C=C/[C@@H](O)C[C@@H](O)CC(=O)O)c(-c2ccc(F)cc2)c2ccccc21` [Fluvastatin sodium (Lescol)], in experiment [1] (Well no.=4998), the remaining activity at 3.75 µM was 102%. Further, in experiment [2] (Well no.=4998), the remaining activity at 1.25 µM was determined as 106%.
Take `CC(C)n1c(/C=C/[C@H](O)C[C@H](O)CC(=O)O)c(-c2ccc(F)cc2)c2ccccc21` [Fluvastatin]: the remaining activity at 3.75 µM in experiment [1] (Well no.=1902) was 98.9%. For the same compound, in experiment [2] (Well no.=1902), the remaining activity at 1.25 µM came out at 97.7%.
For the compound `COCCCC/C(=N\OCCN)c1ccc(C(F)(F)F)cc1` [Fluvoxamine maleate], the remaining activity at 3.75 µM in experiment [1] (Well no.=467) was 96.4%. In addition, in experiment [2] (Well no.=467), the remaining activity at 1.25 µM was determined as 95.7%.
Regarding `C[C@@H](C(=O)O)N(C)C(=O)OCC1c2ccccc2-c2ccccc21` [Fmoc-N-Me-Ala-OH], the remaining activity at 3.75 µM in experiment [1] (Well no.=7976) was determined as 92.8%. In addition, the remaining activity at 1.25 µM in experiment [2] (Well no.=7976) stood at 91.3%.
Take `CC(C)C[C@@H](C(=O)O)N(C)C(=O)OCC1c2ccccc2-c2ccccc21` [Fmoc-N-Me-Leu-OH]: the remaining activity at 3.75 µM in experiment [1] (Well no.=7972) amounted to 94.1%. In addition, in experiment [2] (Well no.=7972), the remaining activity at 1.25 µM was 92.7%.
As to `CN(C(=O)OCC1c2ccccc2-c2ccccc21)[C@@H](Cc1ccccc1)C(=O)O` [Fmoc-N-Me-Phe-OH], in experiment [1] (Well no.=7888), the remaining activity at 3.75 µM stood at 102%. Besides, the remaining activity at 1.25 µM in experiment [2] (Well no.=7888) is 101%.
Consider `Nc1nc(=O)c2nc(CNc3ccc(C(=O)N[C@@H](CCC(=O)O)C(=O)O)cc3)cnc2[nH]1` [Folic acid], for which the remaining activity at 3.75 µM in experiment [1] (Well no.=7300) came out at 96.1%. Also, the remaining activity at 1.25 µM in experiment [2] (Well no.=7300) amounted to 97.8%.
With `COc1cc(=O)n(C)c2c(OCC(O)C(C)(C)O)cccc12` (stereo not shown) [Foliosidine], the remaining activity at 3.75 µM in experiment [1] (Well no.=565) was 97.8%. Also, the remaining activity at 1.25 µM in experiment [2] (Well no.=565) was determined as 104%.
Regarding `C[C@]12CCC(=O)C(O)=C1CC[C@@H]1[C@@H]2CC[C@]2(C)C(=O)CC[C@@H]12` [Formestane], the remaining activity at 3.75 µM in experiment [1] (Well no.=2134) came out at 101%. Besides, the remaining activity at 1.25 µM in experiment [2] (Well no.=2134) was found to be 99.1%.
As to `COc1ccc(-c2coc3cc(O)ccc3c2=O)cc1` [Formononetin], the remaining activity at 3.75 µM in experiment [1] (Well no.=3611) came to 96.2%. In experiment [2] (Well no.=3611), the remaining activity at 1.25 µM was determined as 96.9%.
Take `COc1ccc(C[C@H](C)NC[C@@H](O)c2ccc(O)c(NC=O)c2)cc1` [Formoterol (Fumarate)]: in experiment [1] (Well no.=6413), the remaining activity at 3.75 µM turned out to be 95.1%. Besides, the remaining activity at 1.25 µM in experiment [2] (Well no.=6413) came to 101%.
Regarding `COc1ccc(C[C@@H](C)NC[C@H](O)c2ccc(O)c(NC=O)c2)cc1` [Formoterol hemifumarate], the remaining activity at 3.75 µM in experiment [1] (Well no.=5014) was 104%. Besides, the remaining activity at 1.25 µM in experiment [2] (Well no.=5014) was 109%.
As for `COc1ccc(C[C@@H](C)NC[C@H](O)c2ccc(O)c(NC=O)c2)cc1` [Formoterol], the remaining activity at 3.75 µM in experiment [1] (Well no.=473) came to 99.6%. For the same compound, the remaining activity at 1.25 µM in experiment [2] (Well no.=473) stood at 101%.
For the compound `C=C[C@@]1(C)CC(=O)[C@]2(O)[C@@]3(C)[C@@H](O)CCC(C)(C)[C@@H]3[C@H](O)[C@H](OC(C)=O)[C@@]2(C)O1` [Forskolin], the remaining activity at 3.75 µM in experiment [1] (Well no.=423) was 98.9%; in experiment [1] (Well no.=3281), 99.2%; in experiment [1] (Well no.=8331) it was 95.4%. Further, the remaining activity at 1.25 µM was 99.9% in experiment [2] (Well no.=423), 99.5% in experiment [2] (Well no.=3281) and 98.2% in experiment [2] (Well no.=8331).
As for `CC(C)CN(C[C@@H](OP(=O)(O)O)[C@H](Cc1ccccc1)NC(=O)O[C@H]1CCOC1)S(=O)(=O)c1ccc(N)cc1` [Fosamprenavir], the remaining activity at 3.75 µM in experiment [1] (Well no.=7846) worked out at 102%. Besides, the remaining activity at 1.25 µM in experiment [2] (Well no.=7846) stood at 104%.
In the case of `C[C@@H](O[C@H]1OCCN(Cc2nn(P(=O)(O)O)c(=O)[nH]2)[C@H]1c1ccc(F)cc1)c1cc(C(F)(F)F)cc(C(F)(F)F)c1` [Fosaprepitant (dimeglumine)], the remaining activity at 3.75 µM in experiment [1] (Well no.=7483) is 97.1%. Also, the remaining activity at 1.25 µM in experiment [2] (Well no.=7483) came to 104%.
`C[C@@H](O[C@H]1OCCN(Cc2nn(P(=O)(O)O)c(=O)[nH]2)[C@H]1c1ccc(F)cc1)c1cc(C(F)(F)F)cc(C(F)(F)F)c1` [Fosaprepitant dimeglumine]: the remaining activity at 3.75 µM in experiment [1] (Well no.=5269) came out at 95.4%. Moreover, the remaining activity at 1.25 µM in experiment [2] (Well no.=5269) stood at 97.5%.
Regarding `COc1ccc(/C=C\c2cc(OC)c(OC)c(OC)c2)cc1OP(=O)(O)O` [Fosbretabulin disodium], in experiment [1] (Well no.=5660), the remaining activity at 3.75 µM was determined as 90.4%. Also, the remaining activity at 1.25 µM in experiment [2] (Well no.=5660) was found to be 95.9%.
For `O=C(O)P(=O)(O)O` [Foscarnet Sodium], the remaining activity at 3.75 µM in experiment [1] (Well no.=5321) was determined as 95.6%. In addition, in experiment [2] (Well no.=5321), the remaining activity at 1.25 µM was 101%.
Regarding `CCC(=O)O[C@@H](O[P@](=O)(CCCCc1ccccc1)CC(=O)N1C[C@H](C2CCCCC2)C[C@H]1C(=O)O)C(C)C` [Fosinopril (sodium)], the remaining activity at 3.75 µM in experiment [1] (Well no.=8750) worked out at 94.7%. The remaining activity at 1.25 µM in experiment [2] (Well no.=8750) was 93.5%.
For the compound `CCC(=O)O[C@@H](O[P@](=O)(CCCCc1ccccc1)CC(=O)N1C[C@H](C2CCCCC2)C[C@H]1C(=O)O)C(C)C` [Fosinopril Sodium], the remaining activity at 3.75 µM in experiment [1] (Well no.=8492) came to 102%. Besides, the remaining activity at 1.25 µM in experiment [2] (Well no.=8492) amounted to 101%.
For the compound `CCC(=O)O[C@@H](O[P@](=O)(CCCCc1ccccc1)CC(=O)N1C[C@H](C2CCCCC2)C[C@H]1C(=O)O)C(C)C` [Fosinopril], the remaining activity at 3.75 µM in experiment [1] (Well no.=1904) was found to be 89.1%. Further, the remaining activity at 1.25 µM in experiment [2] (Well no.=1904) amounted to 89.9%.
On to `COc1cnc(-n2cnc(C)n2)c2c1c(C(=O)C(=O)N1CCN(C(=O)c3ccccc3)CC1)cn2COP(=O)(O)O` [Fostemsavir], for which, in experiment [1] (Well no.=7748), the remaining activity at 3.75 µM was 102%. Further, the remaining activity at 1.25 µM in experiment [2] (Well no.=7748) was found to be 101%.
`C[C@H]1C(=O)CC[C@@H]2[C@]1(C)CC[C@H]1[C@@]2(C)CC[C@@]2(C)[C@@H]3CC(C)(C)CC[C@]3(C)CC[C@]12C` [Friedelin]: in experiment [1] (Well no.=3208), the remaining activity at 3.75 µM was 110%. For the same compound, in experiment [2] (Well no.=3208), the remaining activity at 1.25 µM was determined as 109%.
In the case of `O=c1[nH]c(=O)n(C2CCCO2)cc1F` (stereo not shown) [Ftorafur], the remaining activity at 3.75 µM in experiment [1] (Well no.=2164) came out at 99.1%. Moreover, in experiment [2] (Well no.=2164), the remaining activity at 1.25 µM stood at 97.3%.
As for `N[C@@H](CSCCCO)C(=O)O` [Fudosteine], the remaining activity at 3.75 µM in experiment [1] (Well no.=5102) turned out to be 102%. In experiment [2] (Well no.=5102), the remaining activity at 1.25 µM was found to be 100%.
Turning to `C[C@]12CC[C@@H]3c4ccc(O)cc4C[C@@H](CCCCCCCCC[S+]([O-])CCCC(F)(F)C(F)(F)F)[C@H]3[C@@H]1CC[C@@H]2O` (stereo partly shown) [Fulvestrant], the remaining activity at 3.75 µM in experiment [1] (Well no.=2254) was 96.8%. The remaining activity at 1.25 µM in experiment [2] (Well no.=2254) came out at 97.2%.

(Values after article PMC8286840, “Identifying SARS-CoV-2 antiviral compounds by screening for small molecule inhibitors of Nsp3 papain-like protease” (Biochemical Journal, 2021).)
